The source of these data is PubChem BioAssay (NCI).

Test systems include DLD-1 colon; DMS 114 small cell lung; DMS 273 small cell lung; HOP-18 NSCLC; KM20L2 colon; LXFL 529 NSCLC; M19-MEL melanoma; RXF-631 renal; SNB-78 CNS; XF 498 CNS; NCI/ADR-RES ovarian.
Assay in all cases: NCI-60 cell line screen, 48 h

The structures appear in SMILES notation.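 Cultured in 96-well plates, cells were exposed to test compound for 48 hours across five concentrations. TGI marks complete inhibition of growth.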 Where a SMILES comes first, the peptide text is derived from it. [ ]: non-standard residue; d: D form. The star is where a group is joined. ξ: configuration not given here. ξW = NC(Cc1c[nH]c2ccccc12)C(=O)O; X30 = O=C(O)[C@H]1CCC[C@H]1N*; ξF = NC(Cc1ccccc1)C(=O)O; Boc = CC(C)(C)OC(=O)*; ξK = NCCCCC(N)C(=O)O; ξT = CC(O)C(N)C(=O)O; tBu = CC(C)(C)*

Turning to `N#CC(C#N)=Cc1ccc(Oc2ccccc2)cc1`, the TGI with DLD-1 colon is 20.6 µM; with DMS 114 small cell lung it was 84 µM; in the assay with DMS 273 small cell lung it was 37 µM; in the assay on HOP-18 NSCLC, 89.8 µM; in the assay on KM20L2 colon, > 100 µM; with LXFL 529 NSCLC it was 56.7 µM. Moreover, the TGI was > 64.8 µM in the assay with M19-MEL melanoma, > 100 µM in the assay on RXF-631 renal, > 90.8 µM in the assay on SNB-78 CNS and > 100 µM in the assay on XF 498 CNS.

As to `CCOC(=O)/C(=C/c1ccc(Cl)cc1)N(CC)CC`, the TGI in the assay with DLD-1 colon, with HOP-18 NSCLC, with LXFL 529 NSCLC, in the assay on M19-MEL melanoma, in the assay with SNB-78 CNS and in the assay on XF 498 CNS was > 100 µM each time.

`COc1cccc(N2C(=O)[C@H]3[C@H]4CC(C(C)(C)C)CC[C@H]4c4c([nH]c5ccccc45)[C@H]3C2=O)c1` (some centres not stated): the TGI was 65.1 µM with DLD-1 colon; 38 µM in the assay with DMS 114 small cell lung; 36.8 µM with DMS 273 small cell lung; 42.3 µM in the assay with LXFL 529 NSCLC; 44.1 µM in the assay on M19-MEL melanoma; 33.2 µM with RXF-631 renal. Further, the TGI in the assay on SNB-78 CNS is 35.3 µM.

On to `O=c1nc(-c2ccccc2)scc1-c1ccccc1`, for which the TGI with DLD-1 colon, in the assay with DMS 114 small cell lung, in the assay with HOP-18 NSCLC, in the assay with KM20L2 colon, with LXFL 529 NSCLC and with M19-MEL melanoma was > 100 µM in each case. For the same compound, the TGI in the assay with RXF-631 renal and with XF 498 CNS was > 100 µM in each case.

Consider `O=C(Oc1ccc(OC(Oc2ccccc2)c2ccccc2)cc1)c1ccccc1` (configuration not stated), for which, in the assay on NCI/ADR-RES ovarian, the TGI is > 31.6 µM.

Regarding `COc1cc(/C=C2/C(=O)N=C(NC(C)=O)N2C)ccc1OC(C)=O`, in the assay on NCI/ADR-RES ovarian, the TGI is > 100 µM.

`COC(=O)C(C(=O)C(=O)Nc1ccc([N+](=O)[O-])cc1)c1nc2cc(C)c(C)cc2[nH]c1=O` (configuration not stated): the TGI in the assay on DLD-1 colon, in the assay on DMS 114 small cell lung, in the assay with HOP-18 NSCLC, in the assay on KM20L2 colon, in the assay with LXFL 529 NSCLC and with M19-MEL melanoma was > 100 µM in each case. Besides, the TGI in the assay with SNB-78 CNS and with XF 498 CNS was > 100 µM each time.

Turning to `Nc1ccc(-c2nc3ccc(Cc4ccc5nc(-c6ccc(N)cc6)oc5c4)cc3o2)cc1`, in the assay on NCI/ADR-RES ovarian, the TGI was > 100 µM.

In the case of `CC(=O)O[C@]12CCCCC1C1(O)C(O)CCCC[C@H]12` (some centres not stated), the TGI with DMS 114 small cell lung, in the assay with DMS 273 small cell lung, in the assay with HOP-18 NSCLC, in the assay with KM20L2 colon, in the assay with LXFL 529 NSCLC and with M19-MEL melanoma was > 100 µM throughout. In addition, the TGI with SNB-78 CNS was > 100 µM.

For the compound `CC(=O)OC(C#N)CC(C)(C)/[N+]([O-])=[N+](\[O-])C(C)(C)CC(C#N)OC(C)=O` (configuration not stated), the TGI in the assay on NCI/ADR-RES ovarian was determined as 79.3 µM.

`Cc1ccc(C(=O)c2[nH]c(Nc3ccc(Cl)cc3)c(C(=S)Nc3ccccc3)c2N)cc1` yielded a TGI with NCI/ADR-RES ovarian of 17.1 µM.

Regarding `CN1CC(S(=O)(=O)c2ccccc2)CC(S(=O)(=O)c2ccccc2)C1c1ccccc1` (configuration not stated), the TGI with NCI/ADR-RES ovarian is > 100 µM.

Consider `CCOc1ccc(N=Nc2c(-c3ccccc3)nn(C(=O)CC(=O)Nc3cccc(C)c3)c2-c2ccccc2)cc1`, for which the TGI with DLD-1 colon, in the assay with DMS 114 small cell lung, in the assay on DMS 273 small cell lung, in the assay on HOP-18 NSCLC, with KM20L2 colon and with LXFL 529 NSCLC was > 100 µM each time. Also, the TGI in the assay with RXF-631 renal, in the assay with SNB-78 CNS and with XF 498 CNS was > 100 µM each time.

In the case of `COC(=O)C1CCC[C@H]2C(CO)=C(C)C(=O)[C@@H]12` (some centres not stated), the TGI in the assay on DLD-1 colon, with DMS 114 small cell lung, in the assay with DMS 273 small cell lung, in the assay with HOP-18 NSCLC, with KM20L2 colon and in the assay on LXFL 529 NSCLC was > 100 µM in each case. Moreover, the TGI in the assay with SNB-78 CNS and in the assay on XF 498 CNS was > 100 µM in each case.

Turning to `Cc1ccc(Nc2cc(=O)[nH]c(=O)[nH]2)cc1CS`, the TGI in the assay with NCI/ADR-RES ovarian was > 100 µM.

In the assay with NCI/ADR-RES ovarian, `CC(=O)O[C@H]1CC[C@@]2(C)C(=CC[C@H]3[C@@H]4C/C(=C\c5ccncc5)[C@H](OC(C)=O)[C@@]4(C)CC[C@@H]32)C1` yielded a TGI of 27.3 µM.

Take `NN/C(=N\S(=O)(=O)c1cccc2nsnc12)Nc1ccc(Cl)cc1`: in the assay on NCI/ADR-RES ovarian, the TGI was > 100 µM.

In the assay on NCI/ADR-RES ovarian, `CCCCCCCCCCCCCCC[C@@H](O)C[N+](C)(C)CCO` returned a TGI of 34.3 µM.

As for `CCCCCCCCCCCCCCCCNc1ccc2c(c1)OCCOCCOCCOCCO2`, the TGI in the assay with NCI/ADR-RES ovarian was 6.4 µM.

Compound `COC(=O)CCSC1=CC(=O)c2nc3ccccc3c3ccnc1c23` yielded a TGI in the assay with NCI/ADR-RES ovarian of 46.6 µM.

For the compound `C=CCN(c1cc(OCc2ccccc2)c2c(c1)c(C)cn2S(=O)(=O)c1ccccc1)S(C)(=O)=O`, in the assay with NCI/ADR-RES ovarian, the TGI is > 100 µM.

For the compound `Nc1ccc(-c2nc3ccccc3s2)cc1I`, the TGI with NCI/ADR-RES ovarian is > 100 µM.

As to `Cc1nc2ccc(S(=O)(=O)Nc3ccccc3Cl)cc2c(=O)n1NC(=O)CNc1ccccc1Cl`, the TGI with NCI/ADR-RES ovarian is > 100 µM.

For the compound `COc1ccc(/C(Cl)=C(\CNc2ccccn2)c2ccccc2)cc1OC`, the TGI with NCI/ADR-RES ovarian was > 100 µM.

Regarding `CC(C)N(C(=O)c1ccc(NCc2cc(O)ccc2O)cc1)C(C)C`, in the assay on NCI/ADR-RES ovarian, the TGI amounted to 42.9 µM.

As to `Cc1ccc(Cc2nn(C)c(=O)n2-n2cccc2)cc1`, in the assay on NCI/ADR-RES ovarian, the TGI was > 100 µM.

Consider `Cc1cccc(Nc2nc(NNC(=O)Cc3ccccc3)nc(NNC(=O)c3ccncc3)n2)c1`, for which the TGI in the assay on NCI/ADR-RES ovarian was > 10 µM.

As for `CN(C)C(=O)C(F)(F)C(c1ccc(C(F)(F)F)cc1)C1C(=O)N(C)C(=O)N(C)C1=O` (configuration not stated), the TGI in the assay with NCI/ADR-RES ovarian was > 100 µM.

As to `O=C1c2ccccc2-n2c1nc1cc(Cl)ccc1c2=O`, the TGI with NCI/ADR-RES ovarian is > 100 µM.

For `CC(OC(C)(C)C)C(NC(=O)C(CCCCNC(=O)OC(C)(C)C)NC(=O)C(Cc1c[nH]c2ccccc12)NC(=O)C(N)Cc1ccccc1)C(=O)NC(Cc1ccccc1)C(=O)N[C@@H]1CCC[C@@H]1C(=O)O` (some centres not stated) (H-[ξF][ξW][ξK](Boc)[ξT](tBu)[ξF]-X30), the TGI in the assay on NCI/ADR-RES ovarian was > 100 µM.

With `Cc1cn(C2CC(N=[N+]=[N-])C(C(=O)O)O2)c(=O)[nH]c1=O` (configuration not stated), in the assay with NCI/ADR-RES ovarian, the TGI is > 100 µM.

Consider `CN(C)C=Nc1c(Br)cc(Br)c2nonc12`, for which the TGI with NCI/ADR-RES ovarian was > 100 µM.

On to `O=c1[nH]cnc2c1ncn2C1SC(CO)C(O)C1O` (configuration not stated), for which the TGI in the assay on NCI/ADR-RES ovarian is > 100 µM.

As for `COc1ccc2[nH]cc(CN3CCC(CO)(c4ccccc4)CC3)c2c1`, the TGI in the assay with NCI/ADR-RES ovarian is > 100 µM.

`COc1cc2c(cc1O)-c1c(OC)c(O)cc3c1C(C2)N(C)CC3` (configuration not stated): in the assay with NCI/ADR-RES ovarian, the TGI is > 100 µM.

In the assay with NCI/ADR-RES ovarian, `Cc1cccc2c(N)c3cccc(C(=O)NCCN4CCOCC4)c3nc12` registered a TGI of 42.8 µM.

On to `CCOC(=O)NC(C(C(=O)OCC)C(=O)OCC)(C(F)(F)F)C(F)(F)F`, for which the TGI in the assay on NCI/ADR-RES ovarian is > 100 µM.

`Cc1ccc(S(=O)(=O)c2ccsc2NC(=O)c2ccccc2)cc1`: in the assay with NCI/ADR-RES ovarian, the TGI is > 100 µM.

As for `CN/N=C(/CC(=O)c1sc(-n2nc(-c3ccccc3)cc2-c2ccccc2)nc1C)C(=O)Nc1ccc(Cl)c(Cl)c1`, the TGI in the assay on DLD-1 colon, in the assay with LXFL 529 NSCLC, in the assay on M19-MEL melanoma and in the assay with SNB-78 CNS was > 100 µM throughout.
